Reference: BigSolDB 2.1

O=C(O)CCCC(=O)O
Conditions | solubility (mole fraction)
in cyclohexanone, 295.35 K | 0.17
in cyclohexanone, 299.35 K | 0.184
in cyclohexanone, 303.65 K | 0.198
in cyclohexanone, 307.75 K | 0.228
in cyclohexanone, 311.85 K | 0.251
in methanol, 287.05 K | 0.204
in methanol, 295.55 K | 0.239
in methanol, 299.15 K | 0.256
in methanol, 302.85 K | 0.274
in methanol, 306.95 K | 0.294
in methanol, 310.15 K | 0.316
in methanol, 313.45 K | 0.34
in methanol, 317.15 K | 0.37
in methanol, 321.15 K | 0.403
in methanol, 324.85 K | 0.436
in methanol, 328.95 K | 0.472
